In general, EC50 refers to the concentration that produces a half-maximal response.

In the assay the target is Muscarinic acetylcholine receptor M2 (Rattus norvegicus) (UniProt P10980). In words: rat M2 muscarinic receptor PAM counter-screen, SAR follow-up, selectivity assay for M4 PAM optimization project, CHO cells, Gqi5 chimera, calcium, ACh EC20 (AID 623941). As to conditions: CHO rM2/Gqi5 calcium fluorescence, ACh EC20 potentiation; for % ACh max response: at 30 µM (top of the series). Background: A counterscreen serves to expose hits that act by an unwanted route or on another target.

Calls of active or inactive are those of the source.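 The calls were made as follows: active = response rises or falls steadily with concentration, forming a dose-response curve as judged by the submitting lab; inactive = the rest.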

Muscarinic acetylcholine receptor M2 (Rattus norvegicus), sequence (P10980 whole entry, looked up): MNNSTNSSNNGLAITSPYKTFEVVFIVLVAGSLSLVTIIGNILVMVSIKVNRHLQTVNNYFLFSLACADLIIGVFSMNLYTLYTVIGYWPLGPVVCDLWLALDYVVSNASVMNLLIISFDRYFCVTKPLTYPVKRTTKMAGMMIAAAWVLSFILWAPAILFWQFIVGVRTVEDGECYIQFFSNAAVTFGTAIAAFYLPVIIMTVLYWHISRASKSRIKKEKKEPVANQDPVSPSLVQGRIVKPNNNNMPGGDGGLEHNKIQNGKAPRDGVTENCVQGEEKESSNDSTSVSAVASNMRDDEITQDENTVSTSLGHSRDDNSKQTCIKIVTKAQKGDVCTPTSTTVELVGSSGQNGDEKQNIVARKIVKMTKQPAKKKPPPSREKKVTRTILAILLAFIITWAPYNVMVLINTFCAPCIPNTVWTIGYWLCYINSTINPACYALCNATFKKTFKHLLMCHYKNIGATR

In the case of `Cc1nc2sc(C(=O)NCCc3ccncc3)c(N)c2c(C)c1Cl`, the “% ACh max response” value was “inactive”.

Take `Cc1nc2sc(C(=O)NCc3ccccc3)c(N)c2c(C)c1Cl`: the outcome was inactive.

Take `Cc1nc2sc(C(=O)NCc3ccncc3)c(N)c2c(C)c1Cl`: the result was inactive.

`Cc1nc2sc(C(=O)NCc3ccncn3)c(N)c2c(C)c1Cl`: the “% ACh max response” value is “inactive”.

For `Cc1nc2sc(C(=O)NCc3nccs3)c(N)c2c(C)c1Cl`, the “% ACh max response” value is “inactive”.

`Cc1nc2sc(C(=O)NCc3cccnc3)c(N)c2c(C)c1Cl`: the result was inactive.

Take `Cc1nc2sc(C(=O)NCc3cccc(F)c3F)c(N)c2c(C)c1Cl`: the “% ACh max response” value was “inactive”.

Take `Cc1nc2sc(C(=O)NC3CC3)c(N)c2c(C)c1Cl`: the EC50 was 640 nM.

As to `Cc1nc2sc(C(=O)NCc3ccc4c(c3)OCO4)c(N)c2c(C)c1Cl`, the outcome was inactive.

As for `COc1ccc(C)c2sc(NC(=O)c3ccncc3)nc12`, the “% ACh max response” value is “inactive”.
